# Laboratory results from patent publication US5616615A, “Enaminone esters” (priority 1995, dated 1997).
# Read-outs that look alike come from different tables or passages of the source.
# Assays:
# [1] = system: Maximal electroshock seizures; test: MES maximal electroshock seizure test, mice ip; format: in vivo; design: TPE (time of peak effect), activity: unit not given here; conditions: ip
# Description: Three tests were performed:
# 1. MES--Electroshock Seizure Test
# (§1) Maximal electroshock seizures are elicited with a 60-cycle alternating current of 50 mA intensity (5-7 times that necessary to elicit minimal electroshock seizures) delivered via corneal electrodes for 0.2 seconds. A drop of 0.9% saline is instilled in the eye prior to application of the electrodes in order to […].
# [2] = Tox rotorod neurotoxicity, mice ip; conditions: for Tox (rotorod), animals toxic/tested: mouse, in vivo
# Description: (§2) The first phase of the ADD Program involved performing tests on male Carworth Farms #1 mice. […] Three tests were performed:
# In the second phase of the ADD program protocol, estimates of anticonvulsant activity and neurotoxicity are quantified. The median effective dose (ED50) in the MES, sc Met, and rotorod test is determined. In the case of a compound with apparent activity in only one anticonvulsant test, testing is carried out in the other up to, and in some cases beyond, doses which produce neurological deficit. Compounds which fail to produce minimal neurological deficit are tested whenever possible to doses ten times their lowest anticonvulsant ED50. […] The rotorod ED50 is determined at the time of the peak neurologic deficit.
# seizures = test: Anticonvulsant evaluation (ASP phase I / overall); format: in vivo, mice; conditions: Mus musculus, ip, read-out: ASP Classification
# Description: as §2, §1
# The animal is observed for 30 minutes.
# [3] = system: Subcutaneous Pentylenetetrazol seizure; test: sc Met subcutaneous pentylenetetrazol (Metrazol) seizure test, mice; format: in vivo; conditions: Mus musculus, sc
# [4] = system: Maximal electroshock seizures; test: Phase VI oral MES test, rats; format: in vivo; conditions: Rattus norvegicus
# From the text: as §1
# (§3) This oral screen is designated as phase VI.
# in vivo = conditions: rat, po, 50 mg/kg
# From the text: as §3
# [5] = Mus musculus, 0.5 h, 300 mg/kg, 30 min, read-out: MES, animals protected/tested
# [6] = Mus musculus, 2 h, Phase II, 100 mg/kg, 2.00 h, read-out: MES, animals protected/tested (converted)
# [7] = Mus musculus, 3 h, Phase II, 100 mg/kg, 3.00 h, read-out: MES, animals protected/tested (converted)
# [8] = Mus musculus, 4 h, 300 mg/kg, 4 h, read-out: MES, animals protected/tested
# [9] = 0.5 h, 300 mg/kg, 30 min, read-out: scMet, animals protected/tested (converted)
# [10] = 4 h, 300 mg/kg, 4 h, read-out: scMet, animals protected/tested (converted)
# [11] = Mus musculus, 0.5 h, read-out: MES, animals protected/tested
# [12] = Mus musculus, 4 h, read-out: MES, animals protected/tested
# [13] = 4 h, read-out: scMet, animals protected/tested
smiles,measurement,setting,value
"CCCC(CCC)C(=O)O [valproate, reference compound]",ED50,"[1]; Mus musculus, Phase II, time of peak effect",665 mg/kg
same,"TPE (time of peak effect), activity",[1]; Phase II,1
same,"TPE (time of peak effect), toxicity","[2]; Phase II, ip, commercial products, onset of ataxia",2
CCc1ccc(NC2=CC(=O)CC(C)(C)C2)cc1 [Compound 140],responders at 300 mg/kg,[1]; [5],0%
same,responders at 100 mg/kg,[1]; [6],0%
same,responders at 100 mg/kg,[1]; [7],0%
same,responders at 300 mg/kg,[1]; [8],100%
same,"Tox (rotorod), animals toxic/tested",[2]; 100 mg/kg,0/2
same,minimal effective dose,seizures; Phase I,> 100 mg/kg
same,responders at 300 mg/kg,[3]; [9],0%
same,responders at 300 mg/kg,[3]; [10],0%
COC(=O)C1C(=O)C=C(Nc2ccc([N+](=O)[O-])cc2)CC1(C)C (stereo not shown) [Compound 118],responders at 300 mg/kg,[1]; [5],0%
same,responders at 100 mg/kg,[1]; [6],0%
same,responders at 100 mg/kg,[1]; [7],0%
same,responders at 300 mg/kg,[1]; [8],100%
same,"Tox (rotorod), animals toxic/tested",[2]; 100 mg/kg,0/2
same,minimal effective dose,seizures; Phase I,> 100 mg/kg
same,responders at 300 mg/kg,[3]; [9],0%
same,responders at 300 mg/kg,[3]; [10],0%
CCOC(=O)C1C(=O)C=C(Nc2cc(OC)ccc2OC)CC1C (stereo not shown) [Compound 128],responders at 100 mg/kg,"[1]; Mus musculus, 0.25 h, Phase II, 100 mg/kg, 0.25 h, read-out: MES, animals protected/tested (converted)",0%
same,responders at 300 mg/kg,[1]; [5],100%
same,responders at 100 mg/kg,"[1]; Mus musculus, 1 h, Phase II, 100 mg/kg, 1.00 h, read-out: MES, animals protected/tested (converted)",0%
same,responders at 300 mg/kg,[1]; [8],0%
same,"Tox (rotorod), animals toxic/tested",[2]; 100 mg/kg,0/2
same,minimal effective dose,seizures; Phase I,> 100 mg/kg
same,responders at 300 mg/kg,[3]; [9],0%
same,responders at 300 mg/kg,[3]; [10],0%
O=C1C=C(NCc2ccccc2)CCC1 [Compound 148],responders at 100 mg/kg,"[1]; Mus musculus, 0.5 h, 100 mg/kg, 30 min, read-out: MES, animals protected/tested (converted)",100%
same,responders at 300 mg/kg,[1]; [5],100%
same,responders at 100 mg/kg,"[1]; Mus musculus, 4 h, 100 mg/kg, 4 h, read-out: MES, animals protected/tested (converted)",0%
same,responders at 300 mg/kg,[1]; [8],0%
same,responders at 50 mg/kg,"[4]; 0.5 h, oral, 50 mg/kg, 0.50 h, read-out: MES, animals protected/tested (converted)",50%
same,responders at 50 mg/kg,"[4]; oral, 50 mg/kg, 0.25 h, read-out: MES, animals protected/tested (converted)",0%
same,responders at 50 mg/kg,"[4]; oral, 50 mg/kg, 1.00 h, read-out: MES, animals protected/tested (converted)",50%
same,responders at 50 mg/kg,"[4]; oral, 50 mg/kg, 2.00 h, read-out: MES, animals protected/tested (converted)",50%
same,responders at 50 mg/kg,"[4]; oral, 50 mg/kg, 4.00 h, read-out: MES, animals protected/tested (converted)",75%
same,"Tox, animals toxic/tested",in vivo,0/4
same,minimal effective dose,seizures; Phase I,< 100 mg/kg
same,responders at 100 mg/kg,"[3]; 0.5 h, 100 mg/kg, 30 min, read-out: scMet, animals protected/tested (converted)",0%
same,responders at 300 mg/kg,[3]; [9],0%
same,responders at 100 mg/kg,"[3]; 4 h, 100 mg/kg, 4 h, read-out: scMet, animals protected/tested (converted)",0%
same,responders at 300 mg/kg,[3]; [10],0%
O=C1C=C(NCCc2ccccc2)CCC1 [Compound 149],responders at 100 mg/kg,[1]; [11],100%
same,responders at 300 mg/kg,[1]; [11],100%
same,responders at 100 mg/kg,[1]; [12],0%
same,responders at 300 mg/kg,[1]; [12],0%
same,responders at 50 mg/kg,"[4]; po, 0.25 h, read-out: MES, animals protected/tested",100%
same,responders at 50 mg/kg,"[4]; po, 0.5 h, read-out: MES, animals protected/tested",100%
same,responders at 50 mg/kg,"[4]; po, 1 h, read-out: MES, animals protected/tested",75%
same,responders at 50 mg/kg,"[4]; po, 2 h, read-out: MES, animals protected/tested",25%
same,responders at 50 mg/kg,"[4]; po, 4 h, read-out: MES, animals protected/tested",25%
same,"Tox, animals exhibiting toxicity/tested","[2]; 100 mg/kg, 30 min",4/8
same,"Tox, animals exhibiting toxicity/tested","[2]; 100 mg/kg, 4 h",0/4
same,"Tox, animals exhibiting toxicity/tested","[2]; 300 mg/kg, 4 h",1/2
same,minimal effective dose,seizures,< 100 mg/kg
same,responders at 100 mg/kg,"[3]; 0.5 h, read-out: scMet, animals protected/tested",0%
same,responders at 100 mg/kg,[3]; [13],0%
same,responders at 300 mg/kg,[3]; [13],0%
